Experimental data reported in patent US20190046627A1, “USE OF A GNP-LLO91-99 COMPLEX FOR THE TREATMENT AND PREVENTION OF CANCER” (FUNDACIÓN INSTITUTO DE INVESTIGACIÓN MARQUES DE VALDECILLA, priority 2016, published 2019).
“Also recorded” adds a separate entry of the source.

Tests used:
[1] = tested on: murine melanoma B16OVA; assay: Prevention of tumor growth, intraperitoneal melanoma after preventive treatment (Example 5); format: in vivo, mice; conditions: 50 μg/ml intraperitoneal 7 days before i.p. B16OVA, adult C57BL/6
Method: For the comparative study of the prevention of tumor growth in adults between the therapy of the invention and known anti-tumor therapies, the following therapies (50 μg/ml) were inoculated in female adults of the C57BL/6 strain in an intraperitoneal manner: LLO91-99 (only peptide from listeriolysin O of Listeria monocytogenes, LLO91-99), GNP (empty gluconanoparticles), GNP-LLO91-99 (gluconanoparticles synthesized with the peptide from listeriolysin O of Listeria monocytogenes, LLO91-99), GNP-GAPDH1-22 (nanoparticles synthesized with the peptide from glyceraldehyde-3-phosphate dehydrogenase of Listeria monocytogenes, GAPDH1-22) or saline (NT).
Following 7 days preventative post-treatment, the tumors were established following inoculation with 5×10^6 cells of murine melanoma B16OVA in an intraperitoneal manner. Following 7 days post-established of the tumor, the mice were sacrificed and the recovered tumors were measured by means of a gauge and the tumors were analyzed by means of immunohistochemical staining. The results of the reduction of the tumor growth and their intraperitoneal position are shown in FIG. 4A and FIG. 4B and the results of the analysis of the immunohistochemical staining in FIG. 4C.

[2] = tested on: murine melanoma B16F10; assay: Reduction of the size of the tumor in newborns (Example 6); format: in vivo; conditions: 9-day old Balb/c mice, s.c. B16F10 established 5 days, 50 μg/ml in the tumors for 5 days
Method: For the study of the reduction of the size of the tumor in newborns making use of different therapies and their comparison with that of the invention, 5×10^5 cells of murine melanoma B16F10 were inoculated in a subcutaneous manner in the interscapular area of 9-day old female mice of the Balb/c strain.
(§1) Following 5 days post-inoculation, 50 μg/ml of the following therapies were inoculated in the tumors for 5 days: LLO91-99 (only peptide from listeriolysin O of Listeria monocytogenes, LLO91-99), GNP (empty gluconanoparticles), GNP-LLO91-99 (gluconanoparticles synthesized with the peptide from listeriolysin O of Listeria monocytogenes, LLO91-99), GNP-GAPDH1-22 (nanoparticles synthesized with the peptide from glyceraldehyde-3-phosphate dehydrogenase of Listeria monocytogenes, GAPDH1-22). As a control, a vector previously used in therapy was also included, dendritic cells loaded with the LLO91-99 (1×10^5 DC-LLO91-99) peptide.
(§2) Following this treatment, the mice were sacrificed and the tumors recovered, measuring their size with a gauge.

[3] = tested on: murine melanoma B16F10; assay: Reduction of the size of the tumor, subcutaneous murine melanoma in adult mice (Example 2); format: in vivo; conditions: adult C57BL/6 mice, s.c. B16F10 established 7 days, 50 μg/ml inoculated in the tumors for 5 days
Method: For the study of the reduction of the size of the tumor making use of different therapies and their comparison with that of the invention, 1×10^6 cells of murine melanoma B16F10 were inoculated in a subcutaneous manner in the left ventral flank of 8-12-week old female mice of the C57BL/6 strain.
as §1, with “After 7” for “Following 5”, “GAPDH1-22) or no particle (NT). Dendritic cells loaded with the LLO91-99 (1×10^6 DC-LLO91-99) peptide were also included as” for “GAPDH1-22). As”, “therapy.” for “therapy was also included, dendritic cells loaded with the LLO91-99 (1×10^5 DC-LLO91-99) peptide.”
as §2

## H-Gly-Tyr-Lys-Asp-Gly-Asn-Glu-Tyr-Ile-OH (H-GYKDGNEYI-OH) [LLO91-99, only peptide from listeriolysin O of Listeria monocytogenes, LLO91-99]
[1]
  preventative / therapeutic effect on the melanoma (in words): failed to achieve any therapeutic effect
[2]
  therapeutic effect on the melanoma in newborns (in words): failed to achieve any therapeutic effect
[3]
  therapeutic effect on the melanoma (in words): do not achieve any therapeutic effect; also recorded: failed to achieve any therapeutic effect
